From PMC9293779, “Elucidation of binding preferences of YEATS domains to site-specific acetylated nucleosome core particles” (The Journal of Biological Chemistry, 2022)
Blank lines part the entries; values can stand above or below the substance they belong to.

Columns and labels:
[1] = target: T1, AF9-YEATS (Homo sapiens, UniProt P42568); test: Peptide array-based binding assay, AF9-YEATS; conditions: 10 μM YEATS domain, 4 °C overnight, anti-GST/HRP chemiluminescence
T1 construct: For ITC experiments, the cDNAs encoding AF9-YEATS (residues 1–138) and YEATS2-YEATS (200–349) were inserted into the same vector; polyhistidine tag (N); GST (N); made in house
T1 sequence (P42568 1-138): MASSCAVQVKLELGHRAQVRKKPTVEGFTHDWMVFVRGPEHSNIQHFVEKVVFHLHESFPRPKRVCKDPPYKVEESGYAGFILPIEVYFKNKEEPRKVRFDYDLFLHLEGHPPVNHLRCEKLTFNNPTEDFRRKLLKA
Method: (§1) For the assay using the MODified Histone Peptide Array, the same cDNA sequences encoding human YEATS domains were amplified by PCR and subcloned into a pCR2.1 vector with a GST-encoding sequence inserted after an N-terminal polyhistidine tag. For microscale thermophoresis measurements, a similar construct but without GST was used. Site-directed mutagenesis of AF9-YEATS (residues 1–138) was conducted by PCR using the DpnI restriction enzyme and the following primer sets: 5′-CCTTCACGCATCCTTTCCTCGTCCTAAAC-3′ (forward) and 5′-GGAAAGGATGCGTGAAGGTGAAACACCAC-3′ (reverse) for E57A and 5′-CGACTATGACCTGTTTCTGCATCTCG-3′ (forward) and 5′-GCAGAAACAGTGCATAGTCGAAGCGAAC-3′ (reverse) for D103A. The introduced mutations were verified by DNA sequencing. For X-ray structural analysis, the cDNAs encoding AF9-YEATS (residues 1–138) and YEATS2-YEATS (202–338) were amplified by PCR and subcloned into the pCR2.1 vector encoding GST and the polyhistidine tag. […]
(§2) Assays were performed using the MODified Histone Peptide Array (Active Motif) following the manufacturer’s protocol. […] Protein binding was detected by Chemi-Lumi One Super (Nacalai Tesque). Signal intensities were quantified by using the Protein Array Analyzer for ImageJ (written by Gilles Carpentier, 2010. The macro is available online: http://rsb.info.nih.gov/ij/macros/toolsets/Protein Array Analyzer.txt).

[2] = system: ENL-YEATS; test: Peptide array-based binding assay, ENL-YEATS; parameters: species or system human; conditions: 10 μM YEATS domain, 4 °C overnight, anti-GST/HRP chemiluminescence
Method: as §1, §2

[3] = system: GAS41-YEATS; test: Peptide array-based binding assay, GAS41-YEATS; parameters: species or system human; conditions: 10 μM YEATS domain, 4 °C overnight, anti-GST/HRP chemiluminescence
Method: as §1, §2

[4] = target: YEATS2-YEATS; parameters: method as in 2 sources, one per row (each row's own in cited_ref): ref 50 = [50]; PMID 27103431; doi:10.1038/cr.2016.49; 50 Zhao D. Guan H. Zhao S. Mi W. Wen H. Li Y. YEATS2 is a selective histone crotonylation reader Cell Res. 26 2016 629 632 27103431 10.1038/cr.2016.49 PMC4856769 ||| ref 31 = [31]; PMID 29057918; doi:10.1038/s41467-017-01173-4; 31 Mi W. Guan H. Lyu J. Zhao D. Xi Y. Jiang S. YEATS2 links histone acetylation to tumorigenesis of non-small cell lung cancer Nat. Commun. 8 2017 1088 29057918 10.1038/s41467-017-01173-4 PMC5651844; conditions: cited from earlier work
[5] = system: HDAC6; conditions: 1 μM TSA, preincubated 37 °C 1 h, NCP monoacetylated at H4 K5, K8, K12 or K16, 16 h, dot blot
Method: First, we examined whether the reconstituted NCP with Kac is functional as a substrate for lysine deacetylases (KDACs) in vitro. We tested activity of histone deacetylase 6 (HDAC6) toward NCP-containing H4 with K5ac, K8ac, K12ac, or K16ac. […] Subsequently, we examined whether a HDAC-specific inhibitor, trichostatin A (TSA), inhibits deacetylation of Kac-containing NCPs.
The NCPs for deacetylation assays were reconstituted using unmodified H2B. In each deacetylation reaction, 200 ng of the Kac-containing NCP was incubated with 50, 100, 200, or 400 ng of HDAC6 (SignalChem; cat. no. H88-30 G) in 20 μl at 37 °C for 16 h. In the inhibitor assays, TSA was added to the reaction mixture not containing NCP to a final concentration of 1 μM and preincubated at 37 °C for 1 h; NCP monoacetylated either at K5, K8, K12, or K16 of H4 was then added. After the reactions, samples were spotted on a nitrocellulose membrane (BioTrace NT Nitrocellulose Transfer Membrane, 0.2 μm, Pall Corporation, cat. no. 66485) and immunoblotted using H4-specific antibodies, each recognizing acetylation at K5, K8, K12, or K16.

binding on MODified Histone Peptide Array [1]: bound
binding on MODified Histone Peptide Array [2]: bound
binding on MODified Histone Peptide Array [3]: bound
Substance: H4 (1–19) tail peptide diacetylated at K5/K8: peptide on MODified Histone Peptide Array (SGRGKGGKGLGKGGAKRHR; K5 and K8 acetylation; UniProt P62805 2-20, looked up, fragment)

Substance: K27-crotonylated H3 (1–34) peptide: K27-crotonylated H3 (1–34) peptide of ref 50
Kd [4]: 31.7 µM

Substance: trichostatin A [TSA]
inhibition of deacetylation by HDAC6 [5]: inhibited deacetylation of all four Kac residues by HDAC6
